Data as given in publication PMC4845862, “Quantification of active mitochondrial permeability transition pores using GNX-4975 inhibitor titrations provides insights into molecular identity” (Biochemical Journal, 2016).

Test system: adenine nucleotide translocase (ANT)
Experiment: Binding of solubilized heart IMM proteins to immobilized phenylarsine oxide (Western blot of ANT)
Set-up: species or system beef and pig
Settings: heart mitochondria treated with 10 μM CAT prior to IMM isolation and solubilization
Procedure: Centrifugation steps in this process were carried out using a benchtop Eppendorf 5415R centrifuge at 4°C. Mitochondria were washed in ISB and centrifuged at 12 000 g for 5 min before re-suspension in ISB containing protease inhibitors (4 μg/ml each of antipan, pepstatin A and leupeptin plus 0.5 mM benzamidine and 0.5 mM PMSF). Mitochondria were incubated with digitonin (0.12 mg/mg of mitochondrial protein) at 4°C for 15 min on a rotary mixer, and the resulting mitoplasts collected by centrifugation at 9000 g for 10 min before resuspension in ISB containing protease inhibitors and PEG ether W1 (Sigma P7516, formerly known as Lubrol) at 0.16 mg/mg of mitochondrial protein. […]
An immobilized PAO matrix was synthesized by coupling 4-aminophenylarsine oxide to Affi-gel 10 (Bio-Rad Laboratories 153-6099) as described previously. The resin was washed twice in 10 volumes of PAO column buffer (PCB: 150 mM Na2SO4, 50 mM HEPES and 1 mM EGTA, pH 7.2) containing 0.5% (v/v) Triton X-100 and then resuspended to give a 50% (v/v) slurry ready for use. […] Samples were analysed by SDS/PAGE and Western blotting or analysed by Orbitrap MS in the University of Bristol Proteomics Facility. […] The integrated optical density for each band was calculated as the product of the ‘area’ and ‘mean grey value’ with subtraction of a background signal obtained for an equivalent adjacent area lacking any band. […]

SMILES: C=C1[C@@H]2CC[C@H]3[C@]4(C)C[C@H](O[C@@H]5O[C@H](CO)[C@@H](OS(=O)(=O)O)[C@H](OS(=O)(=O)O)[C@H]5OC(=O)CC(C)C)CC(C(=O)O)(C(=O)O)[C@H]4CC[C@]3(C2)[C@H]1O [CAT, carboxyatractyloside]
- ANT binding to the PAO column: totally prevented
